US12441706B2, “Protein degradation agent compound preparation method and application” (SHANGHAI JEMINCARE PHARMACEUTICALS CO., LTD., priority 2019, dated 2025)
pIC50: −log10 of the molar value.

What was measured:
[1] = tested on: VCap cells; test: Inhibition of proliferation of VCap cells (Cell Titer Glo, 6 days); format: cell-based; conditions: Homo sapiens, VCaP, 144 h
Experimental: Tumor cell line VCap FGC (ATCC catalog number CRL-2876) was cultured in DMEM (Gibco catalog number 11965-092) medium containing 10% FBS (Gibco catalog number 10099-141C), respectively. During the determination, Vcap cells were replaced with DMEM medium containing 5% FBS and 0.1 nM R1881 (Sigma catalog number R0908).
(§1) Vcap FGC cells were inoculated in a 384-well plate (Perkin Elmer catalog number 6007460) at a cell density of 1200 cells/well in a volume of 20 μL/well and incubated overnight in a carbon dioxide incubator (Thermo). The prepared compound solutions of different concentrations were added in a volume of 5 μL/well. The corresponding vehicle control was set at the same time. After being cultured in the incubator for 6 days, the cell plate and the contents were equilibrated to room temperature, and 25 μL of Cell Titer Glor (Promega catalog number G7573) was added to each well, shake and mix well, incubated in dark for 10-30 minutes, and the signal values were detected though Envision microplate reader (PerkinElmer).
(§2) The percentage inhibition rate of compound-treated wells was calculated from vehicle control wells on the plate, and the percentage inhibition rate data corresponding to different concentrations were fitted by GraphPad prism, and the IC50 values were calculated by 4-parameter nonlinear logic formula.

[2] = target: T1, androgen receptor (Homo sapiens, UniProt P10275); test: In-Cell-Western determination of androgen receptor degradation in VCaP cells; format: cell-based; conditions: 24 hours treatment
T1 construct: endogenous in cells; host or cells: VCaP cells
T1 sequence (P10275 1-920): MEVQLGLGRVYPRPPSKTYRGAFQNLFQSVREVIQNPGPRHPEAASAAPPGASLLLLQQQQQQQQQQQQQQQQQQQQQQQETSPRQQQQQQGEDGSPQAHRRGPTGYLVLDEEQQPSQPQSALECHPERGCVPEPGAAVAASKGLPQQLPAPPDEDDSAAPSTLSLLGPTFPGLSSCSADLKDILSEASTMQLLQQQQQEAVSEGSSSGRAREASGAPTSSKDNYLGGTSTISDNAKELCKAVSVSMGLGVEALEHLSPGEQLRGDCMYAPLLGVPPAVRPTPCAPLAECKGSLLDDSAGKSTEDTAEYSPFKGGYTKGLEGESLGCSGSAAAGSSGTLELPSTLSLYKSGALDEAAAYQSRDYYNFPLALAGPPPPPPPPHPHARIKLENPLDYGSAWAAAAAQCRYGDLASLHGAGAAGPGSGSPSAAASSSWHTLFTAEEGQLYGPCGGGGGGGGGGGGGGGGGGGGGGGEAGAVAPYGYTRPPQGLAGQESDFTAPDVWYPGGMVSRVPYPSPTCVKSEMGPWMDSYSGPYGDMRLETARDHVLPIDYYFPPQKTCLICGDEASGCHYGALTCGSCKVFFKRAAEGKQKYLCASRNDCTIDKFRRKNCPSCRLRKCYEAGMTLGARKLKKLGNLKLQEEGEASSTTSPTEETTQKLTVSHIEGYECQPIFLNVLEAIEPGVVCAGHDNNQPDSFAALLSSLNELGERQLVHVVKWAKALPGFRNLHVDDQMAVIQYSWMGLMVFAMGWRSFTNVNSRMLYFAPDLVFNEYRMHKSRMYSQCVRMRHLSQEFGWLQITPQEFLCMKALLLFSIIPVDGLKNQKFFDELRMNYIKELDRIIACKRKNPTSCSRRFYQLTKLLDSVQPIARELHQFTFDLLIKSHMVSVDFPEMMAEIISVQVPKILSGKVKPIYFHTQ
Experimental: The determination evaluated the properties of the compounds in Vcap cells. Intracellular androgen receptor was determined by In-Cell-Western according to the determination steps described below.
In poly-D-Lysin pretreated 96-well cell culture plate (Corning 3599), Vcap cells were divided into […] volume, and inoculated with 50,000 cells/well in Vcap cell assay medium [DMEM containing phenol red (Gibco catalog number: 11995065); fetal bovine serum FBS (Gibco catalog number: 10099141C)]. Cells were cultured for at least two days.
1. First treated cells with compound. Compounds were gradient diluted with DMSO and cell culture medium, so that DMSO contained in cell culture plates was diluted to 0.5% —polypropylene plates were used according to the following protocol:
(1)(i) 200× stock plate in DMSO was prepared; (ii) 10 mM stock solution was diluted 1:4 with DMSO (10 μL stock solution+40 μL DMSO)=2000 μM, then entered into row 2; (iii) 1:4 (10 μL protac+40 μL DMSO) gradient dilution was performed in row 2 to row 9, and row 1 was reserved for 2000 μM reference compound and row 10 for DMSO. (iv) A total of 8 concentrations (final concentrations on the 200×plate were 2000 μM, 400 μM, 80 μM, etc.). (i) 3×stock solution in medium was prepared; (ii) 3 μL of 200× stock solution was transferred to 197 μL of culture medium (using 12-channel pipette, from line 1 to line 10), i.e. 3× stock solution plate. (iii) The stock solution plate was mixed evenly. (3) (i) The culture medium of Vcap cells was replaced with fresh culture medium, 100 μL volume culture medium. (ii) The well-mixed 3×stock solution was transferred to the cell culture plate (using 12-channel pipette, and 50 μL of stock solution was transferred from line 1 to line 10). (iii) Cells were cultured for 24 hours.
2. The expression level of intracellular androgen receptor after compound treatment was […] and determined according to the following method.
(1)(i) Equal volume of 8% paraformaldehyde was added to the cell culture plate for cell fixation. The fixing solution in the cell plate was discarded and washed three times with PBS. (ii) Triton solution (1:1000 dilution of the stock solution) was prepared. The solution in the cell plate was discarded, and 200 μL of Triton diluent was added into each well. (iii) 2×blocking solution (1:4 dilution of 10×blocking stock solution) was prepared. The solution in the cell plate was discarded, and 100 μL of 2×blocking solution was added into each well. (iv) Primary antibody solution (Androgen receptor Rabbbit mAb, Cell Signaling Technology catalog number: 5153; 1:1000 dilution) was prepared. The solution in the cell plate was discarded, 100 μL volume of primary antibody diluent was added to each well, and incubated at 4° C. overnight. (v) The primary antibody solution was discarded and the cell plate was washed with 1×Wash buffer. (vi) Secondary antibody solution (GOAT Antirabbit IgG (H+L), HRP, Thermo catalog number: 31460; 1:5000 dilution) was prepared, and 100 μL volume of secondary antibody dilution was added to each well for incubation. (vii) The secondary antibody solution in the cell plate was discarded and the cell plate was washed with 1× Wash buffer. (viii) TMB chromogenic solution (BD catalog number: 550534) was prepared, and 100 μL chromogenic solution was added into each well. (ix) 50 μL volume of stop solution (BD catalog number: 550534) was added to each well. (x) The absorption values at OD 450 nm and 570 nm were read though EnVision. (2)(i) Normalized analysis was performed on the number of cells in each well. The solution in the cell plate was discarded, and washed with wash buffer for three times. (ii) Janus dilution (1:3 dilution) was prepared. (iii) 50 μL volume diluent was added to each well for incubation. (iv) The solution in the plate was discarded and washed with deionized water. […]

[3] = tested on: LNcap FGC cells; test: Inhibition of proliferation of LNcap FGC cells (Cell Titer Glo, 6 days); format: cell-based; conditions: Homo sapiens, LNCaP, 144 h
Experimental: Tumor cell line LNcap FGC (ATCC catalog number CRL-1740) was cultured in RPMI 1640 (Gibco catalog number 11875-093) and DMEM (Gibco catalog number. 11965-092) medium containing 10% FBS (Gibco catalog number 10099-141C), respectively.
as §1, with “LNcap” for “Vcap”, “400” for “1200”, “shook” for “shake”, “mixed” for “mix”, “with” for “though”
as §2, with “from the” for “from”

[4] = tested on: human prostate cancer VCaP cell subcutaneous xenograft tumor; test: In vivo pharmacodynamic study, human prostate cancer VCaP cell subcutaneous xenograft tumor CB17 SCID mouse model; conditions: castrated CB17 SCID mice, 24th day after administration
Experimental: Experimental animal: male mice of CB17 SCID strain, aged 6-8 weeks, weighing 18-22 grams, supplier: Beijing Weitong Lihua Laboratory Animal Technology Co., Ltd. Shanghai Branch, animal certificate number: 20170011005577. Animals were reared in the experimental environment for 7 days after arrival and the experiment was started.
Experimental method: Human prostate cancer cell VCaP cells (ATCC-CRL-2876) were cultured in vitro in monolayer, and the culture conditions were DMEM medium with 20% fetal bovine serum, 100 U/mL penicillin and 100 μg/mL streptomycin, cultured in a 5% CO2 incubator at 37° C. Conventional digestion with trypsin-EDTA was performed twice a week for passage. When the cell saturation was 80%-90% and the number reached the requirement, the cells were collected, counted, and inoculated. 0.2 mL (10× 10^6 cells+Matrigel) VCaP cells were subcutaneously inoculated into the left upper limb of each mouse, and castration was performed 33 days after cell inoculation. When the average tumor volume reached 119 mm^3, the drugs were administered in groups, and the doses of compound 14 were set to four groups: 1 mg/kg, 3 mg/kg, 10 mg/kg and 30 mg/kg.
Daily observation of experimental animals: the health status and death of animals were monitored every day. Routine examinations included observing the effects of tumor growth and drug treatment on the daily behavior of animals, such as behavioral activities, food and water intake (visual observation only), and weight changes (body weight measured three times a week), physical signs or other abnormal conditions.
Tumor measurements and experimental indicators: Experimental indicators were to examine whether tumor growth was inhibited, delayed or cured. Tumor diameters were measured with vernier calipers three times a week.
The calculation formula of tumor volume is: V=0.5a×b2, where a and b represented the long diameter and short diameter of the tumor, respectively. The antitumor effect of the compound was evaluated by TGI (%) or relative tumor proliferation rate T/C (%). TGI (%), reflecting the tumor growth inhibition rate. Calculation of TGI (%): TGI (%)=[1−(average tumor volume at the end of administration of a certain treatment group−average tumor volume at the beginning of administration of the treatment group)/(average tumor volume at the end of treatment in the vehicle control group−average tumor volume at the beginning of treatment in the vehicle control group)]×100%. Relative tumor proliferation rate T/C (%): the calculation formula is as follows: T/C %=TRTV/CRTV×100% (TRTV: RTV in the treatment group; CRTV: RTV in the negative control group). The relative tumor volume (RTV) was calculated according to the results of tumor measurement, and the formula is RTV=Vt/V0, where V0 is the average tumor volume measured at the time of group administration (i.e. d0), and Vt is the average tumor volume at a certain measurement, and TRTV and CRTV were taken on the same day. After the experiment, the tumor weight would be detected, and the percentage of T/Cweight would be calculated. Tweight and Cweight represent the tumor weight of the administration group and the vehicle control group, respectively.
Statistical analysis: Statistical analysis included the mean and standard error (SEM) of tumor volume at each time point for each group. […] T-test was used for comparison between two groups, and one-way ANOVA was used for comparison between three or more groups. […]

[5] = In vivo pharmacokinetics in mice, intravenous injection and oral administration; set-up: species or system mouse; conditions: male CD1 mice
Experimental: In this experimental example, in vivo pharmacokinetics in mice were evaluated by intravenous injection and oral administration.
Experimental methods and conditions: Male CD1 mice, aged 6-8 weeks, all animals were free access to food and water, and were given a single dose of the compound to be tested at 1 mg/Kg by intravenous injection (solvent 5% DMSO/15% Solutol/80% Saline), at 5 min, 15 min, 30 min, 1 hr, 2 hr, 4 hr, 8 hr, 24 hr, 48 h after drug administration, or oral gavage administration of 10 mg/kg (solvent 5% DMSO/10% Solutol/85% Saline), at 15 min, 30 min, 1 hr, 2 hr, 4 hr, 6 h, 8 hr, 24 hr, 48 h after administration, blood was collected from the orbit, no less than 50 μL for each sample, heparin sodium was used for anticoagulation, and then placed on ice after collection, and centrifuged within 1 hour to separate the plasma for testing. The plasma concentration of the drug was detected by liquid tandem mass spectrometry (LC/MS/MS), and the pharmacokinetic parameters were calculated by Phoenix WinNonlin software.

[6] = mouse, intravenous administration 1 mg/kg, plasma
[7] = mouse, oral administration 10 mg/kg, plasma

In the case of `CC1(C)C(=O)N(c2ccc(C#N)c(Cl)c2)c2ccc(-c3ccc(N4CC(CN5CCN(c6ccc7c(c6)C(=O)N(C6CCC(=O)NC6=O)C7=O)CC5)C4)nc3)cc21` (stereo not drawn) [Compound 9], the Emax [1] was 97%, the pIC50 [1] was 7.21 and the DC50 ([2]; concentration for half of the maximal degradation of AR in VCaP cells) was 121 nM. The Dmax ([2]; maximum degradation of AR in VCaP cells) was 56%, the Emax [3] was 100% and the pIC50 [3] was 7.45.
With `CC1(C)[C@H](NC(=O)c2ccc(N3CCC(CN4CCN(c5ccc6c(c5)C(=O)N(C5CCC(=O)NC5=O)C6=O)CC4)CC3)cc2)C(C)(C)[C@H]1Oc1ccc(C#N)c(Cl)c1` (stereo partly drawn) [Reference substance 1, reference compound] the “tumor growth inhibition rate (TGI)” value ([4]; dose 10 mpk) was 60%, the F ([5]; oral administration 10 mg/kg vs intravenous 1 mg/kg) was 99.0% and the AUC(0-inf) [5, 6] was 5360 ng·h/mL. The clearance [5, 6] was 3.11 mL/min/kg, the half-life [5, 6] was 13.4 h and the AUC(0-inf) [5, 7] was 53000 ng·h/mL. For the same compound, the Cmax [5, 7] was 1420 ng/mL and the half-life [5, 7] was 14.4 h.
With `CNC(=O)c1ccc(N2C(=S)N(c3ccc(C#N)c(C(F)(F)F)c3)C(=O)C2(C)C)cc1F` [enzalutamide, reference compound] the “tumor growth inhibition rate (TGI)” value [4] was 45%.
